Measurements taken from patent US20230023092A1, “TREATMENT OF DEPRESSION AND OTHER VARIOUS DISORDERS WITH PSILOCYBIN” (COMPASS […], priority 2019, published 2023).

Tests used:
Format in all cases: in vivo, human
healthy subjects [1] = experiment: Reading the Mind in the Eyes Test (RMET)
Description: In some embodiments, Reading the Mind in the Eyes Test (RMET) is utilized to evaluate the safety and/or efficacy of psilocybin. The RMET has 36 items, in which subjects are presented with a photograph of the eyes region of the face and must choose 1 of 4 adjectives or phrases to describe the mental state of the person pictured. A definition handout is provided at the beginning of the task and a practice item precedes the first trial.
(§1) The Pictorial Empathy Test (PET), Reading the Mind in the Eyes Test (RMET), Scale of Social Responsibility (SSR), Social Value Orientation (SVO), and Toronto Empathy Questionnaire (TEQ) were performed. Table 20 summarizes the results of the mixed model for repeated measures (MMRM) analysis for each of the aforementioned social cognition panel scales measured on Day 7 and Day 84 after study drug administration.

healthy subjects [2] = experiment: Toronto Empathy Questionnaire (TEQ); settings: Day 7
Description: In some embodiments, the Toronto Empathy Questionnaire (TEQ) is utilized to evaluate the safety and/or efficacy of psilocybin. The TEQ represents empathy as a primarily emotional process. […] The TEQ is a brief, reliable and valid instrument for the assessment of empathy. In some embodiments, after treating according to the methods of the disclosure, a subject's TEQ score increases by about 5%, about 10%, about 15%, about 20%, about 25%, about 30%, about 35%, about 40%, about 45%, about 50%, about 55%, about 60%, about 65%, about 70%, about 75%, about 80%, about 85%, about 90%, about 95%, or about 100%, about 110%, about 120%, about 130%, about 140%, about 150%, about 160%, about 170%, about 180%, about 190%, about 200%, about 210%, about 220%, about 230%, about 240%, about 250%, about 260%, about 270%, about 280%, about 290%, or about 300%, or more, compared to prior to treatment.
as §1

healthy subjects [3] = experiment: Social Value Orientation (SVO)
Description: In some embodiments, the Social Value Orientation (SVO) test is utilized to evaluate the safety and/or efficacy of psilocybin. The SVO Slider Measure has 6 primary items with 9 secondary (and optional) items. All of the items have the same general form. Each item is a resource allocation choice over a well-defined continuum of joint payoffs.
as §1

healthy subjects [4] = experiment: Five-Dimensional Altered States of Consciousness (5D-ASC) questionnaire
Description: In some embodiments, the Five Dimension Altered States of Consciousness questionnaire (5D-ASC) is utilized to evaluate the safety and/or efficacy of psilocybin. […] The 5 dimensions include oceanic boundlessness, anxious ego dissolution, visionary restructuralization, auditory alterations and reduction of vigilance.

[5] = Day 7, psilocybin 10 mg - placebo
[6] = Day 7, psilocybin 25 mg - 10 mg
[7] = Day 7, psilocybin 25 mg - placebo
[8] = Day 84, psilocybin 10 mg - placebo
[9] = Day 84, psilocybin 25 mg - 10 mg
[10] = Day 84, psilocybin 25 mg - placebo
[11] = Psilocybin 10 mg, Post-Treatment Day 0, LS mean
[12] = Psilocybin 10 mg-Placebo, Post-Treatment Day 0

CN(C)CCc1c[nH]c2cccc(OP(=O)(O)O)c12 [Psilocybin, psilocybin]
RMET change from baseline (LS mean) (healthy subjects [1]; Day 7, psilocybin 10 mg): 0.4 | RMET change from baseline, LS mean difference (healthy subjects [1]; [5]): 0.1 | RMET change from baseline (LS mean) (healthy subjects [1]; Day 7, psilocybin 25 mg): 0.4 | RMET change from baseline, LS mean difference (healthy subjects [1]; [6]): 0.0 | RMET change from baseline, LS mean difference (healthy subjects [1]; [7]): 0.2 | RMET change from baseline (LS mean) (healthy subjects [1]; Day 84, psilocybin 10 mg): 0.1 | RMET change from baseline, LS mean difference (healthy subjects [1]; [8]): 0.2 | RMET change from baseline (LS mean) (healthy subjects [1]; Day 84, psilocybin 25 mg): 0.4 | RMET change from baseline, LS mean difference (healthy subjects [1]; [9]): 0.3 | RMET change from baseline, LS mean difference (healthy subjects [1]; [10]): 0.5 | TEQ change from baseline (LS mean) (healthy subjects [2]; psilocybin 10 mg): −0.1 | TEQ change from baseline, LS mean difference (healthy subjects [2]; psilocybin 10 mg - placebo): 0.1 | TEQ change from baseline (LS mean) (healthy subjects [2]; psilocybin 25 mg): 0.0 | TEQ change from baseline, LS mean difference (healthy subjects [2]; psilocybin 25 mg - 10 mg): 0.1 | TEQ change from baseline, LS mean difference (healthy subjects [2]; psilocybin 25 mg - placebo): 0.2 | SVO angle change from baseline (LS mean) (healthy subjects [3]; Day 7, psilocybin 10 mg): 1.8 | SVO type change from baseline (LS mean) (healthy subjects [3]; Day 7, psilocybin 10 mg): 0.1 | SVO angle change from baseline, LS mean difference (healthy subjects [3]; [5]): 3.4 | SVO type change from baseline, LS mean difference (healthy subjects [3]; [5]): 0.1 | SVO angle change from baseline (LS mean) (healthy subjects [3]; Day 7, psilocybin 25 mg): 0.5 | SVO type change from baseline (LS mean) (healthy subjects [3]; Day 7, psilocybin 25 mg): 0.1 | SVO angle change from baseline, LS mean difference (healthy subjects [3]; [6]): −1.3 | SVO type change from baseline, LS mean difference (healthy subjects [3]; [6]): −0.0 | SVO angle change from baseline, LS mean difference (healthy subjects [3]; [7]): 2.1 | SVO type change from baseline, LS mean difference (healthy subjects [3]; [7]): 0.1 | SVO angle change from baseline (LS mean) (healthy subjects [3]; Day 84, psilocybin 10 mg): 0.1 | SVO type change from baseline (LS mean) (healthy subjects [3]; Day 84, psilocybin 10 mg): 0.1 | SVO angle change from baseline, LS mean difference (healthy subjects [3]; [8]): 3.4 | SVO type change from baseline, LS mean difference (healthy subjects [3]; [8]): 0.1 | SVO angle change from baseline (LS mean) (healthy subjects [3]; Day 84, psilocybin 25 mg): −0.9 | SVO type change from baseline (LS mean) (healthy subjects [3]; Day 84, psilocybin 25 mg): 0.0 | SVO angle change from baseline, LS mean difference (healthy subjects [3]; [9]): −1.0 | SVO type change from baseline, LS mean difference (healthy subjects [3]; [9]): −0.0 | SVO angle change from baseline, LS mean difference (healthy subjects [3]; [10]): 2.4 | SVO type change from baseline, LS mean difference (healthy subjects [3]; [10]): 0.1 | 5D-ASC Anxiety, Mean (healthy subjects [4]; [11]): 15.7 | 5D-ASC Audio-visual synaesthesia, Mean (healthy subjects [4]; [11]): 74.7 | 5D-ASC Auditory alteration, Mean (healthy subjects [4]; [11]): 20.3 | 5D-ASC Blissful state, Mean (healthy subjects [4]; [11]): 59.1 | 5D-ASC Changed meaning of percepts, Mean (healthy subjects [4]; [11]): 46.6 | 5D-ASC Complex imagery, Mean (healthy subjects [4]; [11]): 53.0 | 5D-ASC Disembodiment, Mean (healthy subjects [4]; [11]): 52.7 | 5D-ASC Dread of ego dissolution, Mean (healthy subjects [4]; [11]): 21.7 | 5D-ASC Elementary imagery, Mean (healthy subjects [4]; [11]): 76.5 | 5D-ASC Experience of unity, Mean (healthy subjects [4]; [11]): 54.4 | 5D-ASC Impaired control and cognition, Mean (healthy subjects [4]; [11]): 27.9 | 5D-ASC Insightfulness, Mean (healthy subjects [4]; [11]): 53.9 | 5D-ASC Oceanic boundlessness, Mean (healthy subjects [4]; [11]): 55.7 | 5D-ASC Spiritual experience, Mean (healthy subjects [4]; [11]): 48.7 | 5D-ASC Vigilance reduction, Mean (healthy subjects [4]; [11]): 35.3 | 5D-ASC Visual restructuralisation, Mean (healthy subjects [4]; [11]): 59.1 | 5D-ASC Anxiety, Mean difference (healthy subjects [4]; [12]): 14.6 | 5D-ASC Audio-visual synaesthesia, Mean difference (healthy subjects [4]; [12]): 66.6 | 5D-ASC Auditory alteration, Mean difference (healthy subjects [4]; [12]): 18.6 | 5D-ASC Blissful state, Mean difference (healthy subjects [4]; [12]): 50.9 | 5D-ASC Changed meaning of percepts, Mean difference (healthy subjects [4]; [12]): 44.4 | 5D-ASC Complex imagery, Mean difference (healthy subjects [4]; [12]): 48.6
